Assay results taken from patent US8211881B2, “Cholesterol-mimetic pyrene probes” (Centre National de la Recherche Scientifique, priority 2005, dated 2012).

What was measured:
[1] = biological target: T1, GPCR μ with opioids (hMOP) (Homo sapiens, UniProt P35372); experiment: Fluorescence spectra of SH-SY5Y cells overexpressing hMOP, marked with pyrene-ketone-cholesterol (4), before and after agonist addition (FIG. 2); format: cell-based; details: agonist under saturation conditions, probe of formula (4)
T1 construct: expressed in transfected cells; host or cells: SH-SY5Y neuroblastoma cells
Experimental: Confluence cells immobilised on a 22 by 22 mm silica slice are placed in a 35 mm diameter Petri dish and covered by 1.2 ml of a 0.22 μm-filtered solution and composed of 15 ml of base medium (DMEM with 1% foetal calf serum) plus 1 ml solution of methyl-β-cyclodextrins loaded with Pyrene cholesterol (4) or (7). The mixture is left to incubate at 37° C. for between 1 and 15 mn according to the desired marking rate. Then the medium is replaced 4 times with 1.2 ml of PBS Ca++Mg++.
The images are produced with a Zeiss axioplanll microscope using a 63× oil-immersion objective (Plan-Neofluoar, NA=1.4) and a CCD camera (C2400-75i Hamamatsu) equipped with the Argus 20 system (Hamamatsu) which removes the background noise directly on the preparation corresponding to the following mounting: after the slice carrying the marked cells has been turned upside-down on a slide provided with cross-pieces, a chamber the volume of which is close to 120 μl is thus produced and filled with DMEM medium . […]
The fluorescence spectra are produced on these mountings on an AMINCO 500 spectrofluorimeter. The excitation wavelength is 335 nm bp 5 nm, the emission spectrum being recorded after 370 nm bp 4 nm and with a resolution of 0.25 nm per point.

[2] = in DMPC; cited from earlier work

T1 sequence (P35372 whole entry): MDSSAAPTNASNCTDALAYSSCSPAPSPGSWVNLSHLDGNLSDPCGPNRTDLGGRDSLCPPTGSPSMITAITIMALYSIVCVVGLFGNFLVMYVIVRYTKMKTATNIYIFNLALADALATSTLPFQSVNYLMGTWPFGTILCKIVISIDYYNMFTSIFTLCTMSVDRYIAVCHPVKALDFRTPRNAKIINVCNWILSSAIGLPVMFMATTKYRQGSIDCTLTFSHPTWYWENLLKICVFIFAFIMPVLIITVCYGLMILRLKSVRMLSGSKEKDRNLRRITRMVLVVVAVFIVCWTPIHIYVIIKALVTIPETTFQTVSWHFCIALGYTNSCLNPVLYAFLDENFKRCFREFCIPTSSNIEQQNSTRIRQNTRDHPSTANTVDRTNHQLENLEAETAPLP

melting point [°C] | Compound | further results
84 | C=C(CCc1ccc2ccc3cccc4ccc1c2c34)[C@H]1CC[C@H]2[C@@H]3CC=C4C[C@@H](O)CC[C@]4(C)[C@H]3CC[C@]12C | –
– | C[C@@H](NC(=O)[C@@H](N)Cc1ccc(O)cc1)C(=O)NCC(=O)N(C)[C@@H](Cc1ccccc1)C(=O)NCCO [DAMGO] | change of membrane polarity (band I1 intensity, I3 and I4 unchanged) after addition of the agonist [1]: reduction in the membrane polarity
– | CC(C)CCC[C@@H](C)[C@H]1CC[C@H]2[C@@H]3CC=C4C[C@@H](O)CC[C@]4(C)[C@H]3CC[C@]12C [cholesterol] | solubility in membrane lipids [2]: 68%
199 | C[C@]12CC[C@H]3[C@@H](CC=C4C[C@@H](O)CC[C@@]43C)[C@@H]1CC[C@@H]2C(=O)CCc1ccc2ccc3cccc4ccc1c2c34 [pyrene-ketone-cholesterol, 3β-hydroxy-pregn-5-ene-21-(1-methylpyrenyl)-20-one] | –
